Values of other authors in patent US20220225651A1, “STEVIOL GLYCOSIDE AND FERULIC ACID FORMULATIONS FOR FOOD AND BEVERAGES” (Sweegen, Inc., priority 2021, published 2022).

Settings: sweetness relative to sucrose
For `C=C1C[C@@]23CC[C@H]4[C@@](C)(CCC[C@@]4(C)C(=O)O[C@@H]4O[C@H](CO)[C@@H](O)[C@H](O)[C@H]4O)[C@@H]2CC[C@]1(O[C@@H]1O[C@H](CO)[C@@H](O)[C@H](O)[C@H]1O[C@@H]1O[C@@H](C)[C@H](O)[C@@H](O)[C@H]1O)C3` [Dulcoside A], the “times sweeter than sucrose” value is listed as “about 30 times”.
In the case of `C=C1C[C@@]23CC[C@H]4[C@@](C)(CCC[C@@]4(C)C(=O)O[C@@H]4O[C@H](CO)[C@@H](O)[C@H](O)[C@H]4O)[C@@H]2CC[C@]1(O[C@@H]1O[C@H](CO)[C@@H](O)[C@H](O)[C@H]1O[C@@H]1O[C@H](CO)[C@@H](O)[C@H](O)[C@H]1O)C3` [stevioside], the “times sweeter than sucrose” value is listed as 100-150 times.
For Rebaudioside C, the “times sweeter than sucrose” value is listed as 40-60 times.
